PubChem BioAssay (NCI)
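Tested at 5 concentrations; 48 h exposure; 96-well plates; endpoints linearly interpolated, else capped at highest concentration. TGI: total growth inhibition.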

How the values were obtained:
Assay in all cases: NCI-60 cell line screen, 48 h
786-0 renal = test system: 786-0 renal
A498 renal = test system: A498 renal
A549 NSCLC = test system: A549 NSCLC
ACHN renal = test system: ACHN renal
BT-549 breast = test system: BT-549 breast
CCRF-CEM leukemia = test system: CCRF-CEM leukemia
DU-145 prostate = test system: DU-145 prostate
EKVX NSCLC = test system: EKVX NSCLC
HCC-2998 colon = test system: HCC-2998 colon
HCT-116 colon = test system: HCT-116 colon
HCT-15 colon = test system: HCT-15 colon
HL-60(TB) leukemia = test system: HL-60(TB) leukemia
HOP-62 NSCLC = test system: HOP-62 NSCLC
HOP-92 NSCLC = test system: HOP-92 NSCLC
HS 578T breast = test system: HS 578T breast
HT29 colon = test system: HT29 colon
IGROV1 ovarian = test system: IGROV1 ovarian
K-562 leukemia = test system: K-562 leukemia
KM12 colon = test system: KM12 colon
M14 melanoma = test system: M14 melanoma
MALME-3M melanoma = test system: MALME-3M melanoma
MCF7 breast = test system: MCF7 breast
MDA-MB-231 breast = test system: MDA-MB-231 breast
MDA-MB-435 = test system: MDA-MB-435
MDA-N = test system: MDA-N
MOLT-4 leukemia = test system: MOLT-4 leukemia
NCI-H226 lung = test system: NCI-H226 lung
NCI-H23 lung = test system: NCI-H23 lung
NCI-H460 lung = test system: NCI-H460 lung
NCI/ADR-RES ovarian = test system: NCI/ADR-RES ovarian
OVCAR-3 ovarian = test system: OVCAR-3 ovarian
OVCAR-5 ovarian = test system: OVCAR-5 ovarian
OVCAR-8 ovarian = test system: OVCAR-8 ovarian
PC-3 prostate = test system: PC-3 prostate
RXF 393 renal = test system: RXF 393 renal
SF-295 CNS = test system: SF-295 CNS
SK-MEL-2 melanoma = test system: SK-MEL-2 melanoma
SK-MEL-28 melanoma = test system: SK-MEL-28 melanoma
SK-MEL-5 melanoma = test system: SK-MEL-5 melanoma
SK-OV-3 ovarian = test system: SK-OV-3 ovarian
SN12C renal = test system: SN12C renal
SNB-19 CNS = test system: SNB-19 CNS
SR leukemia = test system: SR leukemia
SW-620 colon = test system: SW-620 colon
T-47D breast = test system: T-47D breast
TK-10 renal = test system: TK-10 renal
U251 CNS = test system: U251 CNS
UACC-62 melanoma = test system: UACC-62 melanoma
UO-31 renal = test system: UO-31 renal
CAKI-1 renal = test system: CAKI-1 renal
COLO 205 colon = test system: COLO 205 colon
LOX IMVI melanoma = test system: LOX IMVI melanoma
NCI-H522 lung = test system: NCI-H522 lung
OVCAR-4 ovarian = test system: OVCAR-4 ovarian
RPMI-8226 leukemia = test system: RPMI-8226 leukemia
SF-268 CNS = test system: SF-268 CNS
SF-539 CNS = test system: SF-539 CNS
SNB-75 CNS = test system: SNB-75 CNS
UACC-257 melanoma = test system: UACC-257 melanoma

CN(C)c1ccc(/C=C/c2ccc3ccccc3[n+]2C)cc1
TGI (786-0 renal): > 100 µM | TGI (A498 renal): 60.1 µM | TGI (A549 NSCLC): 22.5 µM | TGI (ACHN renal): 55.3 µM | TGI (BT-549 breast): 10.5 µM | TGI (CCRF-CEM leukemia): 24.6 µM | TGI (DU-145 prostate): 25.5 µM | TGI (EKVX NSCLC): 5.85 µM | TGI (HCC-2998 colon): 16.3 µM | TGI (HCT-116 colon): 10.9 µM | TGI (HCT-15 colon): 30.4 µM | TGI (HL-60(TB) leukemia): 3.48 µM | TGI (HOP-62 NSCLC): 25.6 µM | TGI (HOP-92 NSCLC): 5.19 µM | TGI (HS 578T breast): > 100 µM | TGI (HT29 colon): 8.46 µM | TGI (IGROV1 ovarian): > 100 µM | TGI (K-562 leukemia): > 100 µM | TGI (KM12 colon): 13.6 µM | TGI (M14 melanoma): 17.1 µM | TGI (MALME-3M melanoma): 11.2 µM | TGI (MCF7 breast): 14.4 µM | TGI (MDA-MB-231 breast): 12.6 µM | TGI (MDA-MB-435): 13.3 µM | TGI (MDA-N): 13 µM | TGI (MOLT-4 leukemia): 4.53 µM | TGI (NCI-H226 lung): 13.3 µM | TGI (NCI-H23 lung): 9.26 µM | TGI (NCI-H460 lung): 12 µM | TGI (NCI/ADR-RES ovarian): > 100 µM | TGI (OVCAR-3 ovarian): 15.5 µM | TGI (OVCAR-5 ovarian): 26.2 µM | TGI (OVCAR-8 ovarian): 4.3 µM | TGI (PC-3 prostate): 9.84 µM | TGI (RXF 393 renal): 9.84 µM | TGI (SF-295 CNS): 10 µM | TGI (SK-MEL-2 melanoma): 4.02 µM | TGI (SK-MEL-28 melanoma): 12.7 µM | TGI (SK-MEL-5 melanoma): 13.5 µM | TGI (SK-OV-3 ovarian): 60.6 µM | TGI (SN12C renal): 15.8 µM | TGI (SNB-19 CNS): > 100 µM | TGI (SR leukemia): 4.34 µM | TGI (SW-620 colon): 12.3 µM | TGI (T-47D breast): 6.26 µM | TGI (TK-10 renal): 17.7 µM | TGI (U251 CNS): 20.7 µM | TGI (UACC-62 melanoma): 41 µM | TGI (UO-31 renal): 9.62 µM

C=CC(=O)NC(O)(C(=O)OCC)C(F)(F)F (stereo not given)
TGI (A549 NSCLC): > 100 µM | TGI (ACHN renal): > 100 µM | TGI (BT-549 breast): > 100 µM | TGI (CAKI-1 renal): > 100 µM | TGI (CCRF-CEM leukemia): > 100 µM | TGI (COLO 205 colon): > 100 µM | TGI (DU-145 prostate): > 100 µM | TGI (EKVX NSCLC): > 100 µM | TGI (HCC-2998 colon): > 100 µM | TGI (HCT-116 colon): > 100 µM | TGI (HCT-15 colon): > 100 µM | TGI (HL-60(TB) leukemia): > 100 µM | TGI (HOP-62 NSCLC): > 100 µM | TGI (HOP-92 NSCLC): > 100 µM | TGI (HS 578T breast): > 100 µM | TGI (HT29 colon): > 100 µM | TGI (IGROV1 ovarian): > 100 µM | TGI (K-562 leukemia): > 100 µM | TGI (KM12 colon): > 100 µM | TGI (LOX IMVI melanoma): > 100 µM | TGI (M14 melanoma): > 100 µM | TGI (MALME-3M melanoma): > 100 µM | TGI (MCF7 breast): > 100 µM | TGI (MDA-MB-231 breast): > 100 µM | TGI (MDA-MB-435): > 100 µM | TGI (MDA-N): > 100 µM | TGI (MOLT-4 leukemia): > 100 µM | TGI (NCI-H226 lung): > 100 µM | TGI (NCI-H23 lung): > 100 µM | TGI (NCI-H522 lung): > 100 µM | TGI (NCI/ADR-RES ovarian): > 100 µM | TGI (OVCAR-3 ovarian): > 100 µM | TGI (OVCAR-4 ovarian): > 100 µM | TGI (OVCAR-5 ovarian): > 100 µM | TGI (OVCAR-8 ovarian): > 100 µM | TGI (PC-3 prostate): > 100 µM | TGI (RPMI-8226 leukemia): > 100 µM | TGI (RXF 393 renal): > 100 µM | TGI (SF-268 CNS): > 100 µM | TGI (SF-295 CNS): > 100 µM | TGI (SF-539 CNS): > 100 µM | TGI (SK-MEL-2 melanoma): > 100 µM | TGI (SK-MEL-28 melanoma): > 100 µM | TGI (SK-MEL-5 melanoma): > 100 µM | TGI (SK-OV-3 ovarian): > 100 µM | TGI (SN12C renal): > 100 µM | TGI (SNB-19 CNS): > 100 µM | TGI (SNB-75 CNS): > 100 µM | TGI (SR leukemia): > 100 µM | TGI (SW-620 colon): > 100 µM | TGI (T-47D breast): > 100 µM | TGI (TK-10 renal): > 100 µM | TGI (U251 CNS): > 100 µM | TGI (UACC-257 melanoma): > 100 µM | TGI (UACC-62 melanoma): > 100 µM | TGI (UO-31 renal): > 100 µM
